PubChem BioAssay AID272 (DTP/NCI, 2004)
Values joined by “and” are separate entries in the source; they are usually repeats but may differ in a detail not shown here. Equal entries are not always repeated. Inconclusive results are not listed. Residues, ends and D or L forms follow the SMILES beside them. *: point of attachment. Trt = c1ccc(C(c2ccccc2)(c2ccccc2)*)cc1; Cbz = O=C(OCc1ccccc1)*; Bn = c1ccc(C*)cc1; βAla = NCCC(=O)O

Test system: Lewis lung carcinoma i.m., BDF1 mice, T/C %
Experiment: NCI In Vivo Anticancer Drug Screen. Data for tumor model Lewis Lung Carcinoma (intramuscular) in B6D2F1 (BDF1) mice
Method in brief: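 Mice carrying transplantable tumours received test compound. Survival or tumour size was recorded and expressed as the treated-group value (T) divided by the vehicle-treated control-group value (C).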

SMILES: COC(=O)C(CSC(c1ccccc1)(c1ccccc1)c1ccccc1)NC(=O)C(CSCc1ccccc1)NC(=O)CCNC(=O)OCc1ccccc1 (configuration not stated) ({Cbz-βAla}-Cys(Bn)-Cys(Trt)-OMe; configuration not given here)
- T/C (endpoint: median survival time, dose: 4.0 mg/kg/injection, schedule: Q01DX009 (ip), vehicle: Klucel (hydroxypropylcellulose) (HPC), higher = longer survival): 121 % of control
- T/C (endpoint: median survival time, dose: 32.0 mg/kg/injection, schedule: Q01DX009 (ip), vehicle: Klucel (hydroxypropylcellulose) (HPC), higher = longer survival): 171 % of control
- T/C (endpoint: median survival time, dose: 64.0 mg/kg/injection, schedule: Q01DX009 (ip), vehicle: Klucel (hydroxypropylcellulose) (HPC), higher = longer survival): 161 % of control

SMILES: NC(=S)N/N=C/c1ccc(O)cn1
- T/C (endpoint: mean tumor weight, dose: 5.0 mg/kg/injection, schedule: Q03HX024 (ip), vehicle: other, higher = larger tumour): 60 % of control
- T/C (endpoint: mean tumor weight, dose: 10.0 mg/kg/injection, schedule: Q03HX024 (ip), vehicle: other, higher = larger tumour): 46 % of control
- T/C (endpoint: mean tumor weight, dose: 50.0 mg/kg/injection, schedule: Q01DX009 (ip), vehicle: other, higher = larger tumour): 15 % of control
- T/C (endpoint: mean tumor weight, dose: 50.0 mg/kg/injection, schedule: Q01DX011 (ip), vehicle: other, higher = larger tumour): 18 % of control and 40 % of control
- T/C (endpoint: mean tumor weight, dose: 100.0 mg/kg/injection, schedule: Q01DX011 (ip), vehicle: other, higher = larger tumour): 17 % of control
- T/C (endpoint: mean tumor weight, dose: 200.0 mg/kg/injection, schedule: Q04DX003 (ip), vehicle: other, higher = larger tumour): 47 % of control
- T/C (endpoint: mean tumor weight, dose: 400.0 mg/kg/injection, schedule: Q04DX003 (ip), vehicle: other, higher = larger tumour): 28 % of control
- T/C (endpoint: median survival time, dose: 5.0 mg/kg/injection, schedule: Q03HX024 (ip), vehicle: other, higher = longer survival): 108 % of control
- T/C (endpoint: median survival time, dose: 10.0 mg/kg/injection, schedule: Q03HX024 (ip), vehicle: other, higher = longer survival): 112 % of control
- T/C (endpoint: median survival time, dose: 50.0 mg/kg/injection, schedule: Q01DX011 (ip), vehicle: other, higher = longer survival): 113 % of control
- T/C (endpoint: median survival time, dose: 100.0 mg/kg/injection, schedule: Q01DX009 (ip), vehicle: other, higher = longer survival): 170 % of control
- T/C (endpoint: median survival time, dose: 100.0 mg/kg/injection, schedule: Q01DX011 (ip), vehicle: other, higher = longer survival): 103 % of control
- T/C (endpoint: median survival time, dose: 200.0 mg/kg/injection, schedule: Q04DX003 (ip), vehicle: other, higher = longer survival): 120 % of control

SMILES: O=c1[nH]c2cc(Cl)ccc2c(CCl)c1Cl
- T/C (endpoint: mean tumor weight, dose: 25.0 mg/kg/injection, schedule: Q01DX011 (ip), vehicle: saline, higher = larger tumour): 112 % of control
- T/C (endpoint: mean tumor weight, dose: 50.0 mg/kg/injection, schedule: Q01DX011 (ip), vehicle: saline, higher = larger tumour): 101 % of control
- T/C (endpoint: mean tumor weight, dose: 100.0 mg/kg/injection, schedule: Q01DX011 (ip), vehicle: saline, higher = larger tumour): 115 % of control
- T/C (endpoint: median survival time, dose: 25.0 mg/kg/injection, schedule: Q01DX011 (ip), vehicle: saline, higher = longer survival): 95 % of control
- T/C (endpoint: median survival time, dose: 50.0 mg/kg/injection, schedule: Q01DX011 (ip), vehicle: saline, higher = longer survival): 102 % of control
- T/C (endpoint: median survival time, dose: 100.0 mg/kg/injection, schedule: Q01DX011 (ip), vehicle: saline, higher = longer survival): 89 % of control

SMILES: CCCCCCC(=O)O[C@H]1CC[C@H]2[C@@H]3CCC4=CC(=O)CC[C@]4(C)[C@H]3CC[C@]12C
- T/C (endpoint: median survival time, dose: 20.0 mg/kg/injection, schedule: Q01DX009 (ip), vehicle: Klucel (hydroxypropylcellulose) (HPC), higher = longer survival): 94 % of control
- T/C (endpoint: median survival time, dose: 40.0 mg/kg/injection, schedule: Q01DX009 (ip), vehicle: Klucel (hydroxypropylcellulose) (HPC), higher = longer survival): 90 % of control
- T/C (endpoint: median survival time, dose: 80.0 mg/kg/injection, schedule: Q01DX009 (ip), vehicle: Klucel (hydroxypropylcellulose) (HPC), higher = longer survival): 91 % of control
- T/C (endpoint: median survival time, dose: 160.0 mg/kg/injection, schedule: Q01DX009 (ip), vehicle: Klucel (hydroxypropylcellulose) (HPC), higher = longer survival): 110 % of control

SMILES: CCCCNC(C)(C)COC(=O)/C=C/c1ccc(OCCCC)cc1
- T/C (endpoint: mean tumor weight (est.), dose: 12.5 mg/kg/injection, schedule: Q01DX011 (ip), vehicle: saline with Tween-80, higher = larger tumour): 89 % of control
- T/C (endpoint: mean tumor weight (est.), dose: 25.0 mg/kg/injection, schedule: Q01DX011 (ip), vehicle: saline with Tween-80, higher = larger tumour): 82 % of control
- T/C (endpoint: mean tumor weight (est.), dose: 50.0 mg/kg/injection, schedule: Q01DX011 (ip), vehicle: saline with Tween-80, higher = larger tumour): 67 % of control
- T/C (endpoint: mean tumor weight (est.), dose: 100.0 mg/kg/injection, schedule: Q01DX011 (ip), vehicle: saline with Tween-80, higher = larger tumour): 59 % of control
- T/C (endpoint: median survival time, dose: 12.5 mg/kg/injection, schedule: Q01DX011 (ip), vehicle: saline with Tween-80, higher = longer survival): 88 % of control
- T/C (endpoint: median survival time, dose: 25.0 mg/kg/injection, schedule: Q01DX011 (ip), vehicle: saline with Tween-80, higher = longer survival): 110 % of control
- T/C (endpoint: median survival time, dose: 50.0 mg/kg/injection, schedule: Q01DX011 (ip), vehicle: saline with Tween-80, higher = longer survival): 104 % of control
- T/C (endpoint: median survival time, dose: 100.0 mg/kg/injection, schedule: Q01DX011 (ip), vehicle: saline with Tween-80, higher = longer survival): 98 % of control

SMILES: FC(F)(F)c1nc2nc(Cl)c(Cl)nc2[nH]1
- T/C (endpoint: median survival time, dose: 8.0 mg/kg/injection, schedule: Q01DX011 (ip), vehicle: saline, higher = longer survival): 107 % of control
- T/C (endpoint: median survival time, dose: 16.0 mg/kg/injection, schedule: Q01DX011 (ip), vehicle: saline, higher = longer survival): 112 % of control
- T/C (endpoint: median survival time, dose: 32.0 mg/kg/injection, schedule: Q01DX011 (ip), vehicle: saline, higher = longer survival): 116 % of control
